Patent US8703720B2, “Galactoside inhibitors of galectins” (Galecto Biotech AB, priority 2009, dated 2014)

Assays:
[1] = molecular target: galectin-1 (Homo sapiens (Human), UniProt P09382); assay: Fluorescence polarization-based galectin-1 inhibition assay; type: binding; details: calculated from test by fluorescence polarization at the tested conc.
Description: (§1) The known galectin inhibitors galactose and N-acetyllactosamine methyl glycosides were included as reference compounds.
(§2) Identification of the substances was made by HRMS (Micromass Q-tof micro) and NMR (Bruker Ultrashield 400 plus, 400 MHz). Chemical shifts are reported downfield from Me4Si using residual CHD2Cl (7.26 ppm) or CHD2OD (3.35 ppm) as reference. Chemical shifts and coupling constants were obtained from ^1H-NMR and proton resonances were assigned from COSY experiments. Purification was made by RF-HPLC (Beckman, system gold) or flash chromatography, using silica gel (Davisil 35-70 μm, 60 Å). Reactions were followed by TLC (Aluminum sheet, silica gel 60 F254) observed by UV light, H2SO4(aq) or a iso-vanillin/H2SO4/EtOH solution. THF and Et2O were dried over sodium/benzophenone and distilled. CH2Cl2 was dried by molecular sieves (4 Å, 1.6 mm). Other solvents and reagents were commercially available and used without further purifications. Fluorescence polarization experiments were performed on a PolarStar instrument (BMG, Offenburg; Germany). Evaluation of 7, 15-19, and 22 as inhibitors of galectins was performed by use of fluorescence polarization as described in the literature (Sörme et al., 2003a, 2004).

[2] = molecular target: galectin-3 (Homo sapiens (Human), UniProt P17931); assay: Fluorescence polarization-based galectin-3 inhibition assay; type: binding; details: calculated from test by fluorescence polarization at the tested conc.
galectin-3, sequence (P17931 whole entry): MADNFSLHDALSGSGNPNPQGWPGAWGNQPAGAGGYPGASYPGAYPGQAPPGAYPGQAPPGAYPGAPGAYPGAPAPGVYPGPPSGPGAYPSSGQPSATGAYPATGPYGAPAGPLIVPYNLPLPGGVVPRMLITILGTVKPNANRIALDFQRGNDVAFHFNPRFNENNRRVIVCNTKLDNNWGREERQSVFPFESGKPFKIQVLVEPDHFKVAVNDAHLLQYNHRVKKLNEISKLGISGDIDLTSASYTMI
Description: as §1, §2

[3] = system: galectins; details: all galectins, cited from earlier work

galectin-1, sequence (P09382 whole entry, species assumed): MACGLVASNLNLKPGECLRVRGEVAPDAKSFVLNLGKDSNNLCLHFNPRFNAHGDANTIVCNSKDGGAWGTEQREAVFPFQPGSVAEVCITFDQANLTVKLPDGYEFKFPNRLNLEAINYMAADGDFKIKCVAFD

Row | SMILES | Kd [1] | Kd [2] | affinity relative to lactose ([3]; compared with lactose) | Kd [3]
1 | O=C(NC1CCC[C@@H](S[C@@H]2OC(CO)[C@H](O)[C@H](NC(=O)c3ccc(Cl)cc3)C2O)C1O)c1ccc(Cl)cc1 (stereo partly drawn) [Compound 23, ((1R,2R,3S)-2-hydroxy-3-(4-chlorobenzamido)-cyclohexyl)-3-deoxy-3-(4-chlorobenzamido)-thio-β-D-galactopyranoside] | 6.3 µM | 1.4 µM |  | 
2 | CCCNC(=O)c1cn([C@H]2[C@@H](O)[C@@H](CO)O[C@@H](O[C@@H]3CCC[C@H](n4cc(C(=O)NCCC)nn4)[C@H]3O)[C@@H]2O)nn1 [Compound 7, ((1R,2R,3S)-2-hydroxy-3-(4-(N-(1-propyl)-carbamoyl)-1H-1,2,3-triazol-1-yl)cyclohexyl) 3-deoxy-(3-(4-(N-(1-propyl)-carbamoyl)-1H-1,2,3-triazol-1-yl))-β-D-galactopyranoside] |  | 0.43 µM |  | 
3 | CCCNC(=O)c1cn(C2CCC[C@@H](S[C@@H]3OC(CO)[C@H](O)[C@H](n4cc(C(=O)NCCC)nn4)C3O)C2O)nn1 (stereo partly drawn) [Compound 19, ((1R,2R,3S)-2-hydroxy-3-(4-(propylcarbamoyl)-1H-1,2,3-triazol-1-yl)-cyclohexyl)-3-deoxy-3-(4-(propylcarbamoyl)-1H-1,2,3-triazol-1-yl)-thio-β-D-galactopyranoside] | 1.3 µM | 0.19 µM |  | 
4 | OC[C@H]1O[C@@H](S[C@@H]2CCC[C@H](n3cc(-c4ccc(F)cc4)nn3)[C@H]2O)[C@H](O)[C@@H](n2cc(-c3ccc(F)cc3)nn2)[C@H]1O [Compound 17, ((1R,2R,3S)-2-hydroxy-3-(4-(4-fluorophenyl)-1H-1,2,3-triazol-1-yl)-cyclohexyl) 3-deoxy-3-(4-(4-fluorophenyl)-1H-1,2,3-triazol-1-yl)-1-thio-β-D-galactopyranoside] | 1.2 µM | 0.21 µM |  | 
5 | OC[C@H]1O[C@@H](S[C@@H]2CCC[C@H](n3cc(-c4ccsc4)nn3)[C@H]2O)[C@H](O)[C@@H](n2cc(-c3ccsc3)nn2)[C@H]1O [Compound 18, ((1R,2R,3S)-2-hydroxy-3-(4-(3-thiopheneyl)-1H-1,2,3-triazol-1-yl)-cyclohexyl) 3-deoxy-3-(4-(3-thienyl)-1H-1,2,3-triazol-1-yl)-1-thio-β-D-galactopyranoside] | 0.35 µM | 0.55 µM |  | 
6 | O=C[C@H](O)[C@@H](O)[C@@H](O)[C@H](O)CO [D-galactose] |  |  | 50-100 times lower | 
7 | OC[C@H]1O[C@@H](O[C@H]2[C@H](O)[C@@H](O)C(O)O[C@@H]2CO)[C@H](O)[C@@H](O)[C@H]1O (some centres unmarked) [lactose] |  |  |  | 500 to 1000 µM
8 | OC[C@H]1O[C@@H](S[C@@H]2CCC[C@H](n3cc(-c4ccccc4F)nn3)[C@H]2O)[C@H](O)[C@@H](n2cc(-c3ccccc3F)nn2)[C@H]1O [Compound 15, ((1R,2R,3S)-2-hydroxy-3-(4-(2-fluorophenyl)-1H-1,2,3-triazol-1-yl)-cyclohexyl) 3-deoxy-3-(4-(2-fluorophenyl)-1H-1,2,3-triazol-1-yl)-1-thio-β-D-galactopyranoside] | 1.9 µM | 0.23 µM |  | 
9 | OC[C@H]1O[C@@H](S[C@@H]2CCC[C@H](n3cc(-c4cccc(F)c4)nn3)[C@H]2O)[C@H](O)[C@@H](n2cc(-c3cccc(F)c3)nn2)[C@H]1O [Compound 16, ((1R,2R,3S)-2-hydroxy-3-(4-(3-fluorophenyl)-1H-1,2,3-triazol-1-yl)-cyclohexyl) 3-deoxy-3-(4-(3-fluorophenyl)-1H-1,2,3-triazol-1-yl)-1-thio-β-D-galactopyranoside] | 1.5 µM |  |  | 
